Test system: RNAi-treated eri-1 (mg366) nematodes
Experiment: RNAi screening of olfactory receptor genes: chemotaxis assay of RNAi-treated nematodes to odorants
Assay type: in vivo, Caenorhabditis elegans
Method: The RNAi assay was carried out by performing an RNAi method involving the feeding (feeding RNAi method) of eri-1 (mg366) (19), using an Ahringer library (37).
Nine adult eri-1 mutants were placed on an NGM plate containing isopropyl 1-D-1-thiogalactopyranoside (0.19 g/L), ampicillin (60 mg/L), and Escherichia coli (E. coli), and were then cultured for 4 days. Subsequently, the adult worms were used in a chemotaxis assay. The chemotaxis assay was carried out as previously reported (6, 17). In the chemotaxis assay, the present inventor has used 30 to 50 worms in each experiment in which 1 μl of 10^−3- or 10^−4-diluted odorant (low concentration), or 1 and 5 μl of undiluted odorants (high concentration) were used.
The z score and a control value in each single test from 2SD were calculated in all days (Table 3) or every day. The z score was used as a threshold indicating a great difference (−1.96 and 1.96, P<0.05). […] Accordingly, the present inventor has used the z score±1 (−0.96 and 0.96, P<0.33) as a weaker threshold.

Compound: CC(C)CCO [High Iaa]
- chemotaxis index (Control nematodes, repellent or high concentration of attractant): −0.84 ± 0.011
- chemotaxis index (srh-4 RNAi-treated nematodes, repellent or high concentration of attractant): −0.73
- chemotaxis index (srh-7 RNAi-treated nematodes, repellent or high concentration of attractant): −0.86
- chemotaxis index (srh-8 RNAi-treated nematodes, repellent or high concentration of attractant): −0.94
- chemotaxis index (srh-10 RNAi-treated nematodes, repellent or high concentration of attractant): −0.96
- chemotaxis index (srh-11 RNAi-treated nematodes, repellent or high concentration of attractant): −0.79
- chemotaxis index (srh-15 RNAi-treated nematodes, repellent or high concentration of attractant): −0.60
- chemotaxis index (srh-16 RNAi-treated nematodes, repellent or high concentration of attractant): −0.74
- chemotaxis index (srh-18 RNAi-treated nematodes, repellent or high concentration of attractant): −0.78
- chemotaxis index (srh-19 RNAi-treated nematodes, repellent or high concentration of attractant): −0.89
- chemotaxis index (srh-22 RNAi-treated nematodes, repellent or high concentration of attractant): −0.81
- chemotaxis index (srh-23 RNAi-treated nematodes, repellent or high concentration of attractant): −0.88
- chemotaxis index (srh-24 RNAi-treated nematodes, repellent or high concentration of attractant): −1.00
- chemotaxis index (srh-25 RNAi-treated nematodes, repellent or high concentration of attractant): 0.13
- chemotaxis index (srh-27 RNAi-treated nematodes, repellent or high concentration of attractant): −0.92
- chemotaxis index (srh-28 RNAi-treated nematodes, repellent or high concentration of attractant): −0.64
- chemotaxis index (srh-36 RNAi-treated nematodes, repellent or high concentration of attractant): −0.59
- chemotaxis index (srh-37 RNAi-treated nematodes, repellent or high concentration of attractant): −0.69
- chemotaxis index (srh-39 RNAi-treated nematodes, repellent or high concentration of attractant): −0.79
- chemotaxis index (srh-40 RNAi-treated nematodes, repellent or high concentration of attractant): −0.88
- chemotaxis index (srh-41 RNAi-treated nematodes, repellent or high concentration of attractant): −0.56
- chemotaxis index (srh-44 RNAi-treated nematodes, repellent or high concentration of attractant): 0.00
- chemotaxis index (srh-45 RNAi-treated nematodes, repellent or high concentration of attractant): −0.97
- chemotaxis index (srh-46 RNAi-treated nematodes, repellent or high concentration of attractant): −0.91
- chemotaxis index (srh-48 RNAi-treated nematodes, repellent or high concentration of attractant): −0.67
- chemotaxis index (srh-49 RNAi-treated nematodes, repellent or high concentration of attractant): −0.59
- chemotaxis index (srh-50 RNAi-treated nematodes, repellent or high concentration of attractant): −0.93
- chemotaxis index (srh-51 RNAi-treated nematodes, repellent or high concentration of attractant): −0.85
- chemotaxis index (srh-52 RNAi-treated nematodes, repellent or high concentration of attractant): −0.96
- chemotaxis index (srh-55 RNAi-treated nematodes, repellent or high concentration of attractant): −0.95
- chemotaxis index (srh-59 RNAi-treated nematodes, repellent or high concentration of attractant): −0.87
- chemotaxis index (srh-60 RNAi-treated nematodes, repellent or high concentration of attractant): −0.77
- chemotaxis index (srh-61 RNAi-treated nematodes, repellent or high concentration of attractant): −0.82
- chemotaxis index (srh-67 RNAi-treated nematodes, repellent or high concentration of attractant): −0.96
- chemotaxis index (srh-68 RNAi-treated nematodes, repellent or high concentration of attractant): −0.67
- chemotaxis index (srh-69 RNAi-treated nematodes, repellent or high concentration of attractant): −0.94
- chemotaxis index (srh-70 RNAi-treated nematodes, repellent or high concentration of attractant): −0.40
- chemotaxis index (srh-71 RNAi-treated nematodes, repellent or high concentration of attractant): −0.76
- chemotaxis index (srh-72 RNAi-treated nematodes, repellent or high concentration of attractant): −0.55
- chemotaxis index (srh-74 RNAi-treated nematodes, repellent or high concentration of attractant): −0.51
- chemotaxis index (srh-75 RNAi-treated nematodes, repellent or high concentration of attractant): −0.50
- chemotaxis index (srh-77 RNAi-treated nematodes, repellent or high concentration of attractant): −0.68
- chemotaxis index (srh-79 RNAi-treated nematodes, repellent or high concentration of attractant): −0.22
- chemotaxis index (srh-80 RNAi-treated nematodes, repellent or high concentration of attractant): −0.31
- chemotaxis index (srh-82 RNAi-treated nematodes, repellent or high concentration of attractant): −0.53
- chemotaxis index (srh-83 RNAi-treated nematodes, repellent or high concentration of attractant): 0.34
- chemotaxis index (srh-97 RNAi-treated nematodes, repellent or high concentration of attractant): −0.51
- chemotaxis index (srh-99 RNAi-treated nematodes, repellent or high concentration of attractant): −0.33
- chemotaxis index (srh-100 RNAi-treated nematodes, repellent or high concentration of attractant): −0.64
- chemotaxis index (srh-104 RNAi-treated nematodes, repellent or high concentration of attractant): −0.48
- chemotaxis index (srh-105 RNAi-treated nematodes, repellent or high concentration of attractant): −0.76
- chemotaxis index (srh-109 RNAi-treated nematodes, repellent or high concentration of attractant): −0.68
- chemotaxis index (srh-111 RNAi-treated nematodes, repellent or high concentration of attractant): −0.08

Compound: O=Cc1ccccc1 [benzaldehyde]
- chemotaxis index (srh-10 RNAi-treated nematodes, low concentration of attractant): 0.12
- chemotaxis index (srh-11 RNAi-treated nematodes, low concentration of attractant): −0.11
- chemotaxis index (srh-15 RNAi-treated nematodes, low concentration of attractant): −0.13
- chemotaxis index (srh-16 RNAi-treated nematodes, low concentration of attractant): 0.83
- chemotaxis index (srh-18 RNAi-treated nematodes, low concentration of attractant): 0.05
- chemotaxis index (srh-19 RNAi-treated nematodes, low concentration of attractant): 0.64
- chemotaxis index (srh-22 RNAi-treated nematodes, low concentration of attractant): 0.28
- chemotaxis index (srh-23 RNAi-treated nematodes, low concentration of attractant): 0.54
- chemotaxis index (srh-24 RNAi-treated nematodes, low concentration of attractant): 0.69
- chemotaxis index (srh-214 RNAi-treated nematodes, low concentration of attractant): 0.57
- chemotaxis index (srh-216 RNAi-treated nematodes, low concentration of attractant): 0.47
- chemotaxis index (srh-217 RNAi-treated nematodes, low concentration of attractant): 0.76
- chemotaxis index (srh-220 RNAi-treated nematodes, low concentration of attractant): 0.61
- chemotaxis index (srh-222 RNAi-treated nematodes, low concentration of attractant): 0.76
- chemotaxis index (srh-223 RNAi-treated nematodes, low concentration of attractant): 0.49
- chemotaxis index (srh-227 RNAi-treated nematodes, low concentration of attractant): 0.56
- chemotaxis index (srh-229 RNAi-treated nematodes, low concentration of attractant): −0.21
- chemotaxis index (srh-233 RNAi-treated nematodes, low concentration of attractant): −0.11
- chemotaxis index (srh-235 RNAi-treated nematodes, low concentration of attractant): 0.32
- chemotaxis index (srh-236 RNAi-treated nematodes, low concentration of attractant): 0.31
- chemotaxis index (srh-239 RNAi-treated nematodes, low concentration of attractant): 0.34
- chemotaxis index (srh-241 RNAi-treated nematodes, low concentration of attractant): 0.66
- chemotaxis index (srh-243 RNAi-treated nematodes, low concentration of attractant): 0.30
- chemotaxis index (srh-244 RNAi-treated nematodes, low concentration of attractant): 0.43
- chemotaxis index (srh-247 RNAi-treated nematodes, low concentration of attractant): 0.40
- chemotaxis index (srh-250 RNAi-treated nematodes, low concentration of attractant): 0.40
- chemotaxis index (srh-251 RNAi-treated nematodes, low concentration of attractant): 0.70
- chemotaxis index (srh-252 RNAi-treated nematodes, low concentration of attractant): 0.71
- chemotaxis index (srh-258 RNAi-treated nematodes, low concentration of attractant): 0.40
- chemotaxis index (srh-261 RNAi-treated nematodes, low concentration of attractant): 0.45
- chemotaxis index (srh-264 RNAi-treated nematodes, low concentration of attractant): 0.38
- chemotaxis index (srh-266 RNAi-treated nematodes, low concentration of attractant): 0.32
- chemotaxis index (srh-274 RNAi-treated nematodes, low concentration of attractant): 0.45
- chemotaxis index (srh-275 RNAi-treated nematodes, low concentration of attractant): 0.16
- chemotaxis index (srh-276 RNAi-treated nematodes, low concentration of attractant): 0.56
- chemotaxis index (srh-277 RNAi-treated nematodes, low concentration of attractant): 0.49
- chemotaxis index (srh-279 RNAi-treated nematodes, low concentration of attractant): 0.34
- chemotaxis index (srh-281 RNAi-treated nematodes, low concentration of attractant): 0.33
- chemotaxis index (srh-282 RNAi-treated nematodes, low concentration of attractant): 0.24
- chemotaxis index (srh-283 RNAi-treated nematodes, low concentration of attractant): 0.21
- chemotaxis index (srh-284 RNAi-treated nematodes, low concentration of attractant): 0.29
- chemotaxis index (srh-291 RNAi-treated nematodes, low concentration of attractant): 0.58
- chemotaxis index (srh-292 RNAi-treated nematodes, low concentration of attractant): 0.48
- chemotaxis index (srh-293 RNAi-treated nematodes, low concentration of attractant): 0.31
- chemotaxis index (srh-297 RNAi-treated nematodes, low concentration of attractant): 0.63
- chemotaxis index (srh-298 RNAi-treated nematodes, low concentration of attractant): 0.66
- chemotaxis index (srh-308 RNAi-treated nematodes, low concentration of attractant): 0.14
